This note sets out measurements from patent EP4567037A1, “USE OF PYRROLOPYRIMIDINE COMPOUND IN TREATMENT OF ACUTE GRAFT VERSUS HOST DISEASE” (Chia Tai Tianqing Pharmaceutical Group Co., Ltd., priority 2022, dated 2024).

This data set relates to glucocorticoid-resistant acute graft-versus-host disease. In words: Clinical study of tablets of the compound of formula II in subjects with glucocorticoid-resistant acute graft-versus-host disease. Format: in vivo. Here is the method:
This study was conducted to evaluate the safety and preliminary efficacy of the compound of formula II for treating acute graft-versus-host disease in a subject resistant to glucocorticoid.
Administration method: orally administered twice a day at fasting, at a dose of 10 mg or 15 mg each time, with 28 consecutive days of administration as one treatment cycle.
Drug: the compound of formula I in 5 mg or 20 mg tablets, with the compound of formula I being shown as its stereoisomer, a compound of formula II: [drawing 4]
• 1) Aged 12-75 years (inclusive), with no gender restriction; • 2) Previously received allogeneic hematopoietic stem cell transplantation (including non-myeloablative, myeloablative, and reduced-intensity conditioning transplantation of bone marrow, peripheral blood stem cells, and umbilical cord blood); • 3) Clinically diagnosed with aGVHD of grade II to grade IV according to MAGIC guidelines; • Resistance to glucocorticoid therapy *, defined as resistance to high-dose systemic glucocorticoid (methylprednisolone at a dose of 1-2 mg/kg/day or prednisone at an equivalent dose of 1.25-2.5 mg/kg/day), taken alone or taken in combination with a calcineurin inhibitor (CNI); • * Subjects meeting any one of the following conditions can be defined as resistant to conventional glucocorticoid therapy, i.e., therapy with methylprednisolone at a dose of ≥ 1 mg/kg/day or therapy with another type of glucocorticoid at an equivalent dose: (1) progression of aGVHD after the glucocorticoid therapy has been administered for 3 days, (2) no amelioration in aGVHD after the glucocorticoid therapy has been administered for 5 days, and (3) incomplete response of aGVHD after the glucocorticoid therapy has been administered for 14 days; • 4) Within 48 h before the start of therapy, neutrophil count (ANC) > 1 × 10^9/L, and platelet count (PLT) ≥ 20×10^9/L; and • 5) Subjects with voluntary participation, signed informed consent, and good compliance.
During the study, the investigator scored aGVHD treatment responses according to Harris 2016 response evaluation criteria.
The evaluation index may be selected from the group consisting of: • Objective response rate (ORR): refers to the percentage of subjects in complete response (CR) or very good partial response (VGPR) or partial response (PR). • Complete response (CR) rate: refers to the percentage of subjects in complete response (CR). • Overall survival (OS): refers to the time from the start of the first administration to death due to any cause. • Duration of response (DOR): for subjects in complete response (CR) or very good partial response (VGPR) or partial response (PR) on day 28, DOR is defined as the time from the date of the first recorded response to the date of the first recorded disease progression or the start of any new systemic therapy for aGVHD. • Event-free survival (EFS): defined as the time from the date of the first administration to the date of relapse/progression of hematologic disease, transplantation failure, or death due to any cause. • Non-relapse mortality (NRM): defined as the time from the date of the first administration to the date of death not related to relapse/progression of hematologic disease. • Incidence of malignancy relapse/progression (MR): defined as the time from the date of the first administration to the date of relapse/progression of hematologic disease.
Twelve evaluable subjects orally took tablets of the compound of formula II twice a day at fasting, at a dose of 10 mg each time, with 28 days as one administration cycle. The ORR of the 12 subjects on D28 was 83.3% (10/12), with 8 achieving CR and 2 achieving VGPR (very good partial response). […] Evaluation of efficacy in patients

[1] abbreviates: D28, of 12 evaluable subjects, 10 mg twice a day.

Regarding `N#CC[C@H](C1CCCC1)n1cc(-c2ncnc3[nH]ccc23)c(N)n1` [compound of formula II], the Tolerability and safety result (10 mg twice a day, oral tablets, overall adverse events being controllable) was “good tolerability and safety”. For the same compound, the “ORR on D28” value (12 evaluable subjects, oral, twice a day at fasting, 10 mg each time, 28-day cycle, Harris 2016 response criteria) turned out to be 83.3%. For the same compound, the “ORR on D28 (responders/evaluable subjects)” value (12 evaluable subjects, oral, twice a day, 10 mg each time, 28-day cycle) was 10/12. Moreover, the “Number of subjects achieving CR” value under setting [1] turned out to be 8. The “Number of subjects achieving VGPR (very good partial response)” value under setting [1] is on record as 2. Besides, the “Number of patients achieving ORR on D28” value is recorded as 6 (subgroup aGVHD Grade II (6 patients)); 4 (subgroup aGVHD Grade III (6 patients)); 3 (subgroup organ affected by aGVHD: Liver (5 patients)); 4 (subgroup organ affected by aGVHD: Lower digestive tract (5 patients)); 8 (subgroup organ affected by aGVHD: Skin (8 patients)); 2 (subgroup organ affected by aGVHD: Upper digestive tract (2 patients)). The “Number of patients achieving ORR on D28” value reads like this: (subgroup previous therapy Hormone + CD25 monoclonal antibody (1 patient)) 0; (subgroup previous therapy Hormone + CNI + MMF (6 patients)) 5; (subgroup previous therapy Hormone + MTX + CNI + MMF (1 patient)) 1; (subgroup previous therapy Hormone ± CNI (4 patients)) 4.
